Measured values from publication PMC12366525, “Characterization of allosteric modulators that disrupt androgen receptor co-activator protein-protein interactions to alter transactivation–Drug leads for metastatic castration resistant prostate cancer” (SLAS discovery : advancing life sciences R & D, 2023).
Where two headings read alike, the source gives them in different places.

Legend:
[1] = biological target: T1, AR-TIF2 PPI (Homo sapiens, UniProt P10275); experiment: AR-TIF2 PPI biosensor (PPIB) HCS assay, disruption of pre-formed AR-TIF2 PPI complexes; format: cell-based; settings: U-2 OS cells, 25 nM DHT 90 min prior to compounds for 3 h
T1 construct: expressed in transfected cells; host or cells: U-2 OS osteosarcoma cells, co-infected with recombinant adenoviruses
T1 sequence (P10275 663-920 limits assumed): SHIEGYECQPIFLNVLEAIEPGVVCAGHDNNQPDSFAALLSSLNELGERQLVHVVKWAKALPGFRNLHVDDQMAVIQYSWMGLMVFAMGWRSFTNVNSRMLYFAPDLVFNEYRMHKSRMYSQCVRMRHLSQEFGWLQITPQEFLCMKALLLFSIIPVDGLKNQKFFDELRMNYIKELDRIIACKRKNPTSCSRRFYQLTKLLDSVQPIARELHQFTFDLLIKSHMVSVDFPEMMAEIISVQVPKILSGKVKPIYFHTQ
Description: Daughter plates containing 2 μL of the serially diluted compounds in DMSO were prepared and replicated from 384-well serial dilution master plates using a Janus MDT platform outfitted with a 384-well transfer head. Aluminum adhesive plate seals were applied, and plates were stored at −20 °C. For bioassay testing, daughter plates were withdrawn from −20 °C storage, thawed to ambient temperature, and centrifuged for 1 min at 100 × g, and plate seals were removed before 38 μL of serum-free media (SFM) was transferred into wells using a Matrix pipettor (ThermoFisher, Waltham, MA), to generate an intermediate stock concentration of validation compounds ranging from 0.977 to 500 μM (5.0% DMSO). Diluted compounds were mixed by repeated aspiration and dispensation using a 384-well P30 dispensing head on the Janus MDT platform and then, 5 μL of diluted compounds was transferred to assay plate wells to provide a final concentration range from 0.0977 to 50 μM (0.5% DMSO).
The AR-TIF2 PPIB HCS assay was performed in U-2 OS osteosarcoma cells as described previously. Briefly, U-2 OS cells were coinfected with recombinant adenovirus biosensor expression constructs and seeded at 2500 cells per well in 384-well collagen-coated microplates (Greiner BioOne #781956) and plates were incubated overnight at 37°C in 5% CO2 and 95% humidity. […] After the appropriate time, assay plates were fixed by transfer of 50 μL of pre-warmed (37°C) 7.4% formaldehyde and 2 μg/mL Hoechst 33342 in PBS and incubation at room temperature for 30 min. Liquid was aspirated, plates were washed twice with 85 μL PBS, leaving the final wash in the plate. Plates were sealed with adhesive aluminum plate seals, and fluorescent images of three fields of view were acquired in the DAPI (Hoechst stained nuclei), FITC (TIF2-GFP) and Texas Red (AR-RFP) channels on an ImageXpress Micro (IXM) automated HCS platform (Molecular Devices LLC, Sunnyvale, CA) using a 10X Plan Fluor 0.3 NA objective. Images were analyzed using the Translocation Enhanced (TE) image analysis module of the MetaXpress software as described previously.
(§1) In 384-well assays, DMSO minimum (n = 32) and maximum (n = 32) plate control wells were utilized to calculate signal-to-background ratios (S:B) and Z’-factor coefficient assay performance quality control statistics, and to normalize the signals of compound treated wells and to represent 0% and 100% respectively. For the 96-well AR-LBD H^3-DHT radioligand binding assay, eight minimum and maximum plate control wells were utilized to normalize the data. For the PC cell line growth inhibition assays we used the DMSO control data from the T0 and T72 assay plates to assess the dynamic range of the T0 to T72 cell growth, and to calculate S:B ratios and Z’-factor coefficient statistics for the assay signal window (T0 to T72). To normalize the 72 h compound exposure PC growth inhibition data, the signals from the compound treated wells were processed and expressed as% of the T72 DMSO plate controls. IC50 and GI50 values for each of the bioassays were calculated using Graph-Pad Prism 9 software to plot and fit data to curves using the Sigmoidal dose response variable slope equation Y = Bottom + [Top-Bottom]/ [1 + 10^^(LogEC50-X)*HillSlope].

[2] = system: PC-3 cells; experiment: Prostate cancer cell line growth inhibition assay, PC-3; format: cell-based; settings: read-out: PC3 GI50 (AR−)
Description: The PC-3, DU-145, LNCaP, C4–2, and 22Rv1 PC cell line growth inhibition assays have been described previously. On day 1, each PC cell line was harvested, counted, and seeded into two 384-well assay plates, a time zero (T0) and a time 72 h (T72) plate. PC cell lines were all seeded at 1000 cells per well in 45 μL of tissue culture media in uncoated white clear bottom 384-well assay plates (VWR, # 82050–076) using a Matrix electronic multichannel pipette (Thermo Fisher Scientific, Waltham, MA) and cultured overnight at 37 °C, 5% CO2, and 95% humidity. On day 2, 25 μL of the Cell Titer Glo (CTG) (Promega Corporation, Madison, WI) detection reagent was dispensed into the wells of the T0 assay plate using a Matrix electronic multichannel pipette, and the RLUs were captured on the SpectraMax M5e (Molecular Devices LLC, Sunnyvale, CA) microtiter plate reader. Also on day 2, 5 μL of compounds were transferred into the test wells of the T72 384-well assay plates which were returned to the incubator for 72 h. Control wells received DMSO alone. On day 5, 25 μL of the CTG detection reagent was dispensed into the wells of the T72 assay plate using a Matrix electronic multichannel pipette, and the RLU’s were captured on the SpectraMax M5e microtiter plate reader platform.
as §1

SMILES	IC50 [1] [µM]	GI50 ([2]; 72 h) [µM]	GI50 ([2]; Homo sapiens, PC-3, 72 h) [µM]	IC50 ([1]; listed as S1-3) [µM]
Cc1ccccc1-c1cc(O)c2c(c1)CN(c1nc(C(N)=O)cs1)CCO2 [S1–1]	26.6	70.3	70	
Cc1nsc(NC(=O)N2CCC(Sc3ccccc3C)CC2)n1 [S2–6]	5.8		> 100	
Cc1c(-c2ccccc2F)[nH]c2ccc(CNC(=O)CCc3cn[nH]c3)cc12 [S3–11]	29.1		32.6	
CC(=O)NCCC(=O)NCc1ccc2[nH]c(-c3ccccc3F)c(C)c2c1 [S3–13]	41.3		> 100	
Cc1c(-c2ccc(F)cc2)[nH]c2ccc(CNC(=O)c3ccc(CO)o3)cc12 [S3–15]	26.2		23.7	

Next, values leading:

IC50 [1] [µM]	GI50 ([2]; 72 h) [µM]	GI50 ([2]; Homo sapiens, PC-3, 72 h) [µM]	IC50 ([1]; listed as S1-3) [µM]	SMILES
63.1	> 100		63	Cc1ccccc1-c1cc(O)c2c(c1)CN(c1nccs1)CCO2 [S1–3]
26.7		18.4		Cc1c(-c2ccccc2F)[nH]c2ccc(CNC(=O)CCc3cnccn3)cc12 [S3–12]
18		> 100		Cc1c(-c2ccccc2F)[nH]c2ccc(CNC(=O)c3ccc(CO)o3)cc12 [S3–14]
